Results: PubChem BioAssay AID248 (DTP/NCI, 2004)
Values joined by “and” are separate entries in the source; they are usually repeats but may differ in a detail not shown here. Equal entries are not always repeated. Inconclusive results and toxic doses are left out. Cut-off read from the data, not from the text of the source: active = T/C of 150% or more; inactive = T/C below 125%.

Tested on: L1210 leukemia ip in BDF1 mice, survival T/C
Assay: NCI In Vivo Anticancer Drug Screen. Data for tumor model L1210 Leukemia (intraperitoneal) in B6D2F1 (BDF1) mice
Conditions: endpoint: mean survival time, higher = longer survival
In short: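 Transplantable tumor model; survival measured in treated vs vehicle control mice. Value = treated/control.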

[1] = dose: 100.0 mg/kg/injection, schedule: Q01DX009 (ip), vehicle: Klucel (hydroxypropylcellulose) (HPC)
[2] = dose: 100.0 mg/kg/injection, schedule: Q04DX003 (ip), vehicle: Klucel (hydroxypropylcellulose) (HPC)
[3] = dose: 200.0 mg/kg/injection, schedule: Q01DX009 (ip), vehicle: Klucel (hydroxypropylcellulose) (HPC)
[4] = dose: 200.0 mg/kg/injection, schedule: Q04DX003 (ip), vehicle: Klucel (hydroxypropylcellulose) (HPC)
[5] = dose: 400.0 mg/kg/injection, schedule: Q01DX009 (ip), vehicle: Klucel (hydroxypropylcellulose) (HPC)
[6] = dose: 400.0 mg/kg/injection, schedule: Q04DX003 (ip), vehicle: Klucel (hydroxypropylcellulose) (HPC)
[7] = dose: 100.0 mg/kg/injection, schedule: Q01DX009 (ip), vehicle: saline
[8] = dose: 200.0 mg/kg/injection, schedule: Q01DX009 (ip), vehicle: saline
[9] = dose: 100.0 mg/kg/injection, schedule: Q04DX003 (ip), vehicle: saline
[10] = dose: 200.0 mg/kg/injection, schedule: Q04DX003 (ip), vehicle: saline
[11] = dose: 400.0 mg/kg/injection, schedule: Q04DX003 (ip), vehicle: saline

Measured: T/C

CCOC(=O)CSCn1ncc2ccc([N+](=O)[O-])cc21
inactive: dose: 100.0 mg/kg/injection, schedule: Q01DX001 (ip), vehicle: other 95 % of control | dose: 200.0 mg/kg/injection, schedule: Q01DX001 (ip), vehicle: other 95 % of control | dose: 400.0 mg/kg/injection, schedule: Q01DX001 (ip), vehicle: other 97 % of control

O=[N+]([O-])c1cc(C(F)(F)F)cc([N+](=O)[O-])c1N/N=C/c1ccc(Cl)cc1
inactive: dose: 12.5 mg/kg/injection, schedule: Q01DX009 (ip), vehicle: carboxymethylcellulose (CMC) 95 % of control and 102 % of control | dose: 25.0 mg/kg/injection, schedule: Q01DX009 (ip), vehicle: carboxymethylcellulose (CMC) 97 % of control and 88 % of control | dose: 100.0 mg/kg/injection, schedule: Q01DX001 (ip), vehicle: carboxymethylcellulose (CMC) 100 % of control and 103 % of control | dose: 100.0 mg/kg/injection, schedule: Q04DX002 (ip), vehicle: carboxymethylcellulose (CMC) 100 % of control and 105 % of control | dose: 100.0 mg/kg/injection, schedule: Q04DX003 (ip), vehicle: carboxymethylcellulose (CMC) 92 % of control and 101 % of control | dose: 200.0 mg/kg/injection, schedule: Q01DX001 (ip), vehicle: carboxymethylcellulose (CMC) 103 % of control and 91 % of control | dose: 200.0 mg/kg/injection, schedule: Q04DX002 (ip), vehicle: carboxymethylcellulose (CMC) 98 % of control and 90 % of control | dose: 200.0 mg/kg/injection, schedule: Q04DX003 (ip), vehicle: carboxymethylcellulose (CMC) 94 % of control and 96 % of control | dose: 400.0 mg/kg/injection, schedule: Q01DX001 (ip), vehicle: carboxymethylcellulose (CMC) 103 % of control and 105 % of control | dose: 400.0 mg/kg/injection, schedule: Q01DX009 (ip), vehicle: carboxymethylcellulose (CMC) 86 % of control and 90 % of control | dose: 400.0 mg/kg/injection, schedule: Q04DX002 (ip), vehicle: carboxymethylcellulose (CMC) 86 % of control and 87 % of control | dose: 400.0 mg/kg/injection, schedule: Q04DX003 (ip), vehicle: carboxymethylcellulose (CMC) 92 % of control and 96 % of control

c1cnon1
inactive: dose: 100.0 mg/kg/injection, schedule: Q01DX001 (ip), vehicle: saline 102 % of control | dose: 200.0 mg/kg/injection, schedule: Q01DX001 (ip), vehicle: saline 102 % of control | dose: 400.0 mg/kg/injection, schedule: Q01DX001 (ip), vehicle: saline 95 % of control

COC(OC)c1cc(=O)[nH]c(=S)n1Cl
inactive: [1] 86 % of control | [2] 102 % of control | [3] 91 % of control | [4] 107 % of control | [5] 91 % of control | [6] 105 % of control

Nc1n[nH]c(C(=O)O)n1
inactive: [1] 98 % of control | [2] 107 % of control | [3] 107 % of control | [4] 93 % of control | [5] 105 % of control | [6] 93 % of control

O=C(NCCc1ccccc1)c1ccc(Cl)cc1
inactive: dose: 100.0 mg/kg/injection, schedule: Q04DX002 (ip), vehicle: Klucel (hydroxypropylcellulose) (HPC) 115 % of control | dose: 200.0 mg/kg/injection, schedule: Q04DX002 (ip), vehicle: Klucel (hydroxypropylcellulose) (HPC) 92 % of control | dose: 400.0 mg/kg/injection, schedule: Q04DX002 (ip), vehicle: Klucel (hydroxypropylcellulose) (HPC) 89 % of control

NCCNC(=O)c1ccccc1
inactive: [7] 94 % of control | [8] 100 % of control

Cc1cc2c3ccc(C)[n+](C)c3ccc2n1C
inactive: dose: 1.25 mg/kg/injection, schedule: Q01DX009 (ip), vehicle: saline 109 % of control | dose: 2.5 mg/kg/injection, schedule: Q01DX009 (ip), vehicle: saline 115 % of control | dose: 2.5 mg/kg/injection, schedule: Q04DX003 (ip), vehicle: saline 112 % of control | dose: 5.0 mg/kg/injection, schedule: Q01DX009 (ip), vehicle: saline 115 % of control | dose: 5.0 mg/kg/injection, schedule: Q04DX003 (ip), vehicle: saline 110 % of control | dose: 9.5 mg/kg/injection, schedule: Q01DX001 (ip), vehicle: saline 106 % of control | dose: 10.0 mg/kg/injection, schedule: Q04DX003 (ip), vehicle: saline 112 % of control | dose: 20.0 mg/kg/injection, schedule: Q04DX003 (ip), vehicle: saline 103 % of control

CSCC(N)CO (centres undefined)
inactive: [7] 94 % of control | [9] 100 % of control | [8] 100 % of control | [10] 103 % of control | dose: 400.0 mg/kg/injection, schedule: Q01DX009 (ip), vehicle: saline 100 % of control | [11] 103 % of control

CN(C)C(=O)Nc1ccc(Cl)cc1
inactive: [7] 91 % of control | [9] 93 % of control | [8] 100 % of control | [10] 98 % of control | [11] 101 % of control

NC(=S)N/N=C/c1cccc2ccccc12
inactive: dose: 100.0 mg/kg/injection, schedule: Q04DX002 (ip), vehicle: gum acacia 91 % of control | dose: 200.0 mg/kg/injection, schedule: Q04DX002 (ip), vehicle: gum acacia 98 % of control | dose: 400.0 mg/kg/injection, schedule: Q04DX002 (ip), vehicle: gum acacia 117 % of control

CC(C)=CCNc1ncnc2c1c(C(N)=O)cn2C1OC(CO)C(O)C1O (centres undefined)
inactive: dose: 100.0 mg/kg/injection, schedule: Q01DX005 (ip), vehicle: saline 107 % of control | dose: 200.0 mg/kg/injection, schedule: Q01DX005 (ip), vehicle: saline 123 % of control

O=C1NCCCC1C(=O)Nc1cccc2c1NCCC2 (centres undefined)
inactive: dose: 100.0 mg/kg/injection, schedule: Q01DX001 (ip), vehicle: Klucel (hydroxypropylcellulose) (HPC) 105 % of control | dose: 200.0 mg/kg/injection, schedule: Q01DX001 (ip), vehicle: Klucel (hydroxypropylcellulose) (HPC) 94 % of control | dose: 400.0 mg/kg/injection, schedule: Q01DX001 (ip), vehicle: Klucel (hydroxypropylcellulose) (HPC) 105 % of control

c1cc2c(c(OCC3=NCCN3)c1)CCCC2
inactive: dose: 100.0 mg/kg/injection, schedule: Q04DX002 (ip), vehicle: saline 94 % of control

COc1ccc(CN2CCCN(Cc3ccc(OC)cc3)C2c2ccc(NC(C)=O)cc2)cc1
inactive: dose: 100.0 mg/kg/injection, schedule: Q01DX001 (ip), vehicle: acetone 100 % of control | dose: 200.0 mg/kg/injection, schedule: Q01DX001 (ip), vehicle: acetone 100 % of control

C=CCCCCCCCCC(=O)N/N=C/c1cccs1
inactive: [1] 95 % of control | [3] 100 % of control | [5] 105 % of control

Cc1c(Cl)ccc2c(=O)c(C(=O)O)c[nH]c12
inactive: [2] 95 % of control | [4] 103 % of control | [6] 97 % of control

COc1cc2c(cc1OC)CC[N+](C)=C2
inactive: dose: 12.5 mg/kg/injection, schedule: Q01DX009 (ip), vehicle: saline 92 % of control | dose: 25.0 mg/kg/injection, schedule: Q01DX009 (ip), vehicle: saline 95 % of control | dose: 25.0 mg/kg/injection, schedule: Q04DX003 (ip), vehicle: saline 108 % of control | dose: 50.0 mg/kg/injection, schedule: Q01DX009 (ip), vehicle: saline 93 % of control | dose: 50.0 mg/kg/injection, schedule: Q04DX003 (ip), vehicle: saline 100 % of control | [7] 96 % of control | [9] 103 % of control and 106 % of control

O=C1NC(c2cccc(OCc3ccccc3)c2)Nc2ccccc21 (centres undefined)
inactive: dose: 50.0 mg/kg/injection, schedule: Q01DX009 (ip), vehicle: Klucel (hydroxypropylcellulose) (HPC) 105 % of control | [1] 107 % of control | dose: 150.0 mg/kg/injection, schedule: Q01DX009 (ip), vehicle: Klucel (hydroxypropylcellulose) (HPC) 109 % of control

CCC(CCC(C)C1CCC2C3CC=C4CC(OC(=O)Nc5ccc(Cl)cc5)CCC4(C)C3CCC12C)C(C)C (centres undefined)
inactive: dose: 100.0 mg/kg/injection, schedule: Q04DX002 (ip), vehicle: saline with Tween-80 91 % of control | dose: 200.0 mg/kg/injection, schedule: Q04DX002 (ip), vehicle: saline with Tween-80 97 % of control | dose: 400.0 mg/kg/injection, schedule: Q04DX002 (ip), vehicle: saline with Tween-80 94 % of control

OC(Cc1cc(CC(O)(C(F)(F)F)C(F)(F)F)n(-c2ccccc2)n1)(C(F)(F)F)C(F)(F)F
inactive: dose: 100.0 mg/kg/injection, schedule: Q04DX003 (ip), vehicle: saline with Tween-80 97 % of control | dose: 200.0 mg/kg/injection, schedule: Q04DX003 (ip), vehicle: saline with Tween-80 97 % of control | dose: 400.0 mg/kg/injection, schedule: Q04DX003 (ip), vehicle: saline with Tween-80 95 % of control

C=CCCC1(CCC(C)C)C(=O)NC(=O)NC1=O
inactive: dose: 150.0 mg/kg/injection, schedule: Q01DX001 (ip), vehicle: saline 116 % of control

O=S(=O)(Nc1ccc2ccccc2c1)c1cccc2ccccc12
inactive: [2] 101 % of control | [4] 93 % of control | [6] 101 % of control

C[N+](C)(C)CC1C2C=CC(C2)C1CO (centres undefined)
inactive: [9] 110 % of control | [10] 107 % of control | [11] 100 % of control
